Test system: glutamate-induced oxidative stress injury of HT22 cells (谷氨酸诱导的HT22细胞氧化应激损伤)
Assay: Protection of HT22 cells against glutamate-induced oxidative stress injury (LDH release, cell viability)
Assay type: cell-based
Conditions: HT-22, HT22 mouse hippocampal neuronal cells, 15 mM glutamate, 24 h, 10 concentrations, 0.25% DMSO

SMILES | EC50 [nM]
Cc1ccc(N(/N=C/c2ccc3c(c2)OCO3)C(=O)C(F)(F)F)c(C)c1 [实施例1, (E)-N'-(苯并-1,3-二恶环戊烷-5-亚甲基)-N-(2,4-二甲苯基)-2,2,2-三氟乙酰肼] | 130
Cc1ccc(N(/N=C/c2ccc(Cl)cc2Cl)C(=O)C(F)(F)F)c(C)c1 [实施例2, (E)-N'-(2,4-二氯苯亚甲基)-N-(2,4-二甲苯基)-2,2,2-三氟乙酰肼] | 130
CC(=O)N(/N=C/c1ccc2c(c1)OCO2)c1ccc(C)cc1C [实施例3, (E)-N'-(苯并-1,3-二恶环戊烷-5-亚甲基)-N-(2,4-二甲苯基)乙酰肼] | 4120
